Assay results from patent publication EP4389751A1, “HETEROCYCLIC COMPOUNDS AND USES THEREOF” (Kumquat Biosciences Inc., priority 2021, dated 2024).
pIC50: −log10 of the molar value.

Tests used:
K-Ras G12S = biological target: T1, K-Ras G12S (Homo sapiens, UniProt P01116, G12S); assay: HTRF assay of the K-Ras / SOS1 interaction; assay type: biochemical; settings: IC50 (against K-Ras G12D) to IC50 (against K-Ras G12S)
T1 construct: made in house; host or cells: E. coli (e.g., BL21 (DE3))
Method in brief: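 GST-K-Ras G12S with anti-GST-Eu donor and His-hSOS1 with anti-6His-XL665 acceptor in ~5 mM HEPES pH 7.4, ~150 mM NaCl, 1 mM DTT, 0.05% BSA, 0.0025% Igepal. Read after ~10 min or longer; IC50 from 665/620 nm ratio, duplicates at 10 µM down to 0.01 µM.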

[1] = biological target: T2, KRAS protein (His-tagged GDP-loaded G12S 1-169) (Homo sapiens, UniProt P01116, G12S); assay: Covalent modification of KRAS protein, intact-protein LC-MS; assay type: binding; settings: 24hrs at room temperature, KRAS protein ~2 µM
T2 construct: His-tagged GDP-loaded G12S 1-169
Protocol: Test compounds are prepared as 10 mM stock solutions in DMSO (Fisher cat#BP231-100). KRAS protein (His-tagged GDP-loaded wildtype 1-169, His-tagged GDP-loaded G12S 1-169 or His-tagged GDP-loaded G12D 1-169) is diluted to ~2 µM in appropriate buffer (e.g., a Hepes buffer at physiological conditions). For testing KRAS modification, compounds are diluted to 50X final test concentration in DMSO in 96-well storage plates. 2 µl of the diluted 50X compounds are added to appropriate wells in the PCR plate (Fisher cat#AB-0800). […] of the stock protein solution is added to each well of the 96-well PCR plate. Reactions are mixed carefully. The plate is sealed well with aluminum plate seal, and stored in drawer at room temperature for 24hrs. 5 µl of 2% formic acid (Fisher cat#A1 17-50) in MilliQ H2O is then added to each well followed by mixing with a pipette. The plate is then resealed with aluminum seal and stored until mass spectrometry analysis.
The extent of covalent modification of KRAS proteins was determined by liquid chromatography electrospray mass spectrometry analysis of the intact proteins on a Thermo Q-Exactive Plus mass spectrometer. 20 µl of sample was injected onto a bioZen 3.6 µm Intact C4 column (Phenomenex cat#00B-4767-AN) placed in a column oven set to 40°C and separated using a suitable LC gradient from -20% to ~60% solvent B. Solvent A was 0.1% formic acid and solvent B was 0.1% formic acid in acetonitrile. HESI source settings were set to 40, 5 and 1 for the sheath, auxiliary and sweep gas flow, respectively. The spray voltage was 4 kV, and the capillary temperature was 320°C. S-lens RF level was 50 and auxiliary gas heater temperature was set to 200°C. The mass spectrometry was acquired using a scan range from 650 to 1750 m/z using positive polarity at a mass resolution of 70,000, AGC target of 1e6 ions and maximum injection time of 250ms. The recorded protein mass spectrum was deconvoluted from the raw data file using Protein Deconvolution v4.0 (Thermo). The protein mass and adduct masses were exported with their peak intensities. The peak intensities for the unmodified and modified protein were used to calculate the percent covalent modification of the KRAS protein based on the following equation: %KRAS protein modification = ((KRAS-compound) / (KRAS) + (KRAS-Compound)) *100.

GP2D cells = assay: Cell proliferation assay (CellTiter-Glo), K-Ras G12D cells; assay type: cell-based; settings: GP2D cells (K-Ras G12D); read-out: Inhibition of GP2D Cells (IC50)
Method in brief: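 GP2D (K-Ras G12D) cells seeded in DMEM with 2 mM glutamine and 10% FBS, then dosed next day with a dilution series (e.g., 9-point 3-fold). Viability read by CellTiter-Glo luminescence after about 5 days. IC50 from four-parameter fit.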

Row | Compound | Ratio of IC50 KRAS G12D vs. IC50 KRAS G12S (K-Ras G12S) | % G12S Modification at 24 hr. [1] | pIC50 (GP2D cells)
1 | N#Cc1c(N)sc2c(F)ccc(-c3ncc4c(N5CC6CCC(C5)N6C(=O)n5ccnc5C#N)nc(OC[C@@]56CCCN5C[C@H](F)C6)nc4c3F)c12 [Compound A165, 1-(3-(7-(2-amino-3-cyano-7-fluorobenzo[b]thiophen-4-yl)-8-fluoro-2-(((2R,7aS)-2-fluorotetrahydro-1H-pyrrolizin-7a(5H)-yl)methoxy)pyrido[4,3-d]pyrimidin-4-yl)-3,8-diazabicyclo[3.2. 1]octane-8-carbonyl)-1H-imidazole-2-carbonitrile] | A (A: indicates that the ratio of IC50 against KrasG12D vs. IC50 against KrasG12S is 1-fold or greater) | ++ (++ indicates between about 1%- 20% labelling) | 5.00 to 6.00
2 | Nc1nc2c(-c3c(Cl)cc4c(N5CCOC6(CCN(C(=O)n7cncn7)CC6)C5)nc(OCC56CCCN5C[C@H](F)C6)nc4c3F)ccc(F)c2s1 (stereo partly drawn) [Compound A243, (4-(7-(2-amino-7-fluorobenzo[d]thiazol-4-yl)-6-chloro-8-fluoro-2-(((2R)-2-fluorotetrahydro-1H-pyrrolizin-7a(5H)-yl)methoxy)quinazolin-4-yl)-1-oxa-4,9-diazaspiro [5.5]undecan-9-yl)(1H-1,2,4-triazol-1-yl)methanone] | A (A: indicates that the ratio of IC50 against KrasG12D vs. IC50 against KrasG12S is 1-fold or greater) | +++ (+++ indicates greater than 20% labelling) | 5.00 to 6.00
3 | Nc1nc2c(-c3c(Cl)cc4c(N5CCC56CCCN(C(=O)n5cncn5)C6)nc(OCC56CCCN5CC(F)C6)nc4c3F)ccc(F)c2s1 (centres unmarked) [Compound A197, (1-(7-(2-amino-7-fluorobenzo[d]thiazol-4-yl)-6-chloro-8-fluoro-2-((2-fluorotetrahydro-1H-pyrrolizin-7a(5H)-yl)methoxy)quinazolin-4-yl)-1,6-diazaspiro[3.5]nonan-6-yl)(1H-1,2,4-triazol-1-yl)methanone] | A (A: indicates that the ratio of IC50 against KrasG12D vs. IC50 against KrasG12S is 1-fold or greater) | +++ (+++ indicates greater than 20% labelling) | 5.00 to 6.00
4 | N#Cc1nccn1C(=O)N1CCCN(c2nc(OC[C@@]34CCCN3C[C@H](F)C4)nc3c(F)c(-c4ccc(F)c5sc(N)nc45)c(Cl)cc23)CC1 [Compound A171, 1-(4-(7-(2-amino-7-fluorobenzo[d]thiazol-4-yl)-6-chloro-8-fluoro-2-(((2R,7aS)-2-fluorotetrahydro-1H-pyrrolizin-7a(5H)-yl)methoxy)quinazolin-4-yl)-1,4-diazepane-1-carbonyl)-1H-imidazole-2-carbonitrile] | A (A: indicates that the ratio of IC50 against KrasG12D vs. IC50 against KrasG12S is 1-fold or greater) | +++ (+++ indicates greater than 20% labelling) | 5.00 to 6.00
5 | Nc1nc2c(-c3c(Cl)cc4c(N5CC6(CCCN(C(=O)n7cncn7)C6)C5)nc(OC[C@@]56CCCN5C[C@H](F)C6)nc4c3F)ccc(F)c2s1 [Compound A230, (2-(7-(2-amino-7-fluorobenzo[d]thiazol-4-yl)-6-chloro-8-fluoro-2-(((2R,7aS)-2-fluorotetrahydro-1H-pyrrolizin-7a(5H)-yl)methoxy)quinazolin-4-yl)-2,6-diazaspiro[3.5]nonan-6-yl)(1H-1,2,4-triazol-1-yl)methanone] | A (A: indicates that the ratio of IC50 against KrasG12D vs. IC50 against KrasG12S is 1-fold or greater) | +++ (+++ indicates greater than 20% labelling) | 5.00 to 6.00
6 | Nc1nc2c(-c3c(Cl)cc4c(N5CCC6(CN(C(=O)n7cncn7)CCO6)C5)nc(OC[C@@]56CCCN5C[C@H](F)C6)nc4c3F)ccc(F)c2s1 (stereo partly drawn) [Compound A202, (2-(7-(2-amino-7-fluorobenzo[d]thiazol-4-yl)-6-chloro-8-fluoro-2-(((2R,7aS)-2-fluorotetrahydro-1H-pyrrolizin-7a(5H)-yl)methoxy)quinazolm-4-yl)-6-oxa-2,9-diazaspiro[4.5]decan-9-yl)(1H-1,2,4-triazol-1-yl)methanone] |  | +++ (+++ indicates greater than 20% labelling) | 5.00 to 6.00
7 | CC1(C)CN(c2nc(OC[C@@]34CCCN3C[C@H](F)C4)nc3c(F)c(-c4ccc(F)c5sc(N)nc45)c(Cl)cc23)CC2(CN(C(=O)n3cncn3)C2)O1 [Compound A212, (8-(7-(2-amino-7-fluorobenzo[d]thiazol-4-yl)-6-chloro-8-fluoro-2-(((2R,7aS)-2-fluorotetrahydro-1H-pyrrolizin-7a(5H)-yl)methoxy)quinazolin-4-yl)-6,6-dimethyl-5-oxa-2,8-diazaspiro[3.5]nonan-2-yl)(1H-1,2,4-triazol-1-yl)methanone] |  | +++ (+++ indicates greater than 20% labelling) | 5.00 to 6.00
8 | Nc1nc2c(-c3c(Cl)cc4c(N5CCCCC6(CN(C(=O)n7cncn7)C6)C5)nc(OC[C@@]56CCCN5C[C@H](F)C6)nc4c3F)ccc(F)c2s1 [Compound A265, (6-(7-(2-amino-7-fluorobenzo[d]thiazol-4-yl)-6-chloro-8-fluoro-2-(((2R,7aS)-2-fluorotetrahydro-1H-pyrrolizin-7a(5H)-yl)methoxy)quinazolm-4-yl)-2,6-diazaspiro[3.6]decan-2-yl)(1H-1,2,4-triazol-1-yl)methanone] |  | +++ (+++ indicates greater than 20% labelling) | ≥ 6.00
9 | N#Cc1nccn1C(=O)N1CCN(c2nc(OC[C@@]34CCCN3C[C@H](F)C4)nc3c(F)c(-c4ccc(F)c5sc(N)nc45)c(Cl)cc23)CC1 [Compound A272, 1-(4-(7-(2-amino-7-fluorobenzo[d]thiazol-4-yl)-6-chloro-8-fluoro-2-(((2R,7aS)-2-fluorotetrahydro-1H-pyrrolizin-7a(5H)-yl)methoxy)quinazolin-4-yl)piperazine-1-carbonyl)-1H-imidazole-2-carbonitrile] |  | +++ (+++ indicates greater than 20% labelling) | 5.00 to 6.00
10 | N#Cc1cccn1C(=O)N1CCN(c2nc(OC[C@@]34CCCN3C[C@H](F)C4)nc3c(F)c(-c4ccc(F)c5sc(N)nc45)c(Cl)cc23)CC1 [Compound A287, 1-(4-(7-(2-amino-7-fluorobenzo[d]thiazol-4-yl)-6-chloro-8-fluoro-2-(((2R,7aS)-2-fluorotetrahydro-1H-pyrrolizin-7a(5H)-yl)methoxy)quinazolin-4-yl)piperazine-1-carbonyl)-1H-pyrrole-2-carbonitrile] |  | ++ (++ indicates between about 1%- 20% labelling) | 5.00 to 6.00
11 | N#Cc1cccn1C(=O)N1CCN(c2nc(OC[C@@]34CCCN3C[C@H](F)C4)nc3c(F)c(-c4ccc(F)c5sc(N)nc45)c(Cl)cc23)CC(F)(F)C1 [Compound A114, 1-(4-(7-(2-amino-7-fluorobenzo[d]thiazol-4-yl)-6-chloro-8-fluoro-2-(((2R,7aS)-2-fluorotetrahydro-1H-pyrrolizin-7a(5H)-yl)methoxy)quinazolin-4-yl)-6,6-difluoro-1,4-diazepane-1-carbonyl)-1H-pyrrole-2-carbonitrile] | A (A: indicates that the ratio of IC50 against KrasG12D vs. IC50 against KrasG12S is 1-fold or greater) | +++ (+++ indicates greater than 20% labelling) | 
12 | Nc1nc2c(-c3c(Cl)cc4c(N5CCC6(CC5)CN(C(=O)n5cncn5)CCO6)nc(OC[C@@]56CCCN5C[C@H](F)C6)nc4c3F)ccc(F)c2s1 [Compound A225, (9-(7-(2-amino-7-fluorobenzo[d]thiazol-4-yl)-6-chloro-8-fluoro-2-(((2R,7aS)-2-fluorotetrahydro-1H-pyrrolizin-7a(5H)-yl)methoxy)quinazolin-4-yl)-1-oxa-4,9-diazaspiro [5.5]undecan-4-yl)(1H-1,2,4-triazol-1-yl)methanone] | A (A: indicates that the ratio of IC50 against KrasG12D vs. IC50 against KrasG12S is 1-fold or greater) | ++ (++ indicates between about 1%- 20% labelling) | 
